Measured values published in ChEMBL document CHEMBL1122957, “Artificial siderophores. 2. Syntheses of trihydroxamate analogues of rhodotorulic acid and their biological iron transport capabilities in Escherichia coli” (1985).

How the values were obtained:
Assay type in all cases: functional, organism-based
Escherichia coli [1] = assay: The ability of the artificial siderophores to support the growth of Escherichia coli strain AN 193 was evaluated at the concentration of 50 and 500 uM; No growth around the disc
Escherichia coli [2] = assay: The ability of the artificial siderophores to support the growth of Escherichia coli strain BN 3300 was evaluated at the concentration of 50 and 500 uM; No growth around the disc
Escherichia coli [3] = assay: The ability of the artificial siderophores to support the growth of Escherichia coli strain BN 3306 was evaluated at the concentration of 50 and 500 uM; No growth around the disc
Escherichia coli [4] = assay: The ability of the artificial siderophores to support the growth of Escherichia coli strain RW 193 was evaluated at the concentration of 50 and 500 uM; No growth around the disc
Escherichia coli [5] = assay: The ability of the artificial siderophores to support the growth of Escherichia coli strain RWB7 was evaluated at the concentration of 50 and 500 uM; No growth around the disc
Escherichia coli [6] = assay: The ability of the artificial siderophores to support the growth of Escherichia coli strain RWB7 was evaluated at the concentration of 50 uM; No growth around the disc
Escherichia coli [7] = assay: The ability of the artificial siderophores to support the growth of Escherichia coli strain BN 3300 was evaluated at the concentration of 50 uM; No growth around the disc
Escherichia coli [8] = assay: The ability of the artificial siderophores to support the growth of Escherichia coli strain BN 3306 was evaluated at the concentration of 50 uM; No growth around the disc
Escherichia coli [9] = assay: The ability of the artificial siderophores to support the growth of Escherichia coli strain AN 193 was evaluated at the concentration of 50 uM; No growth around the disc
Escherichia coli [10] = assay: The ability of the artificial siderophores to support the growth of Escherichia coli strain RWB7 was evaluated at the concentration of 25 uM; No growth around the disc

Compound: CN(O)C(=O)CCCCCn1c(=O)[nH]c(=O)n(CCCCCC(=O)N(C)O)c1=O
- Inhibitory diameter (Escherichia coli [1]): Not toxic
- Inhibitory diameter (Escherichia coli [2]): Not toxic
- Inhibitory diameter (Escherichia coli [3]): Not toxic
- Inhibitory diameter (Escherichia coli [4]): Not toxic
- Inhibitory diameter (Escherichia coli [5]): Not toxic

Compound: CC(=O)N(O)CCC[C@@H]1NC(=O)[C@H](CCCN(O)C(C)=O)NC1=O
- Inhibitory diameter (Escherichia coli [6]): Not toxic
- Inhibitory diameter (Escherichia coli [7]): Not toxic
- Inhibitory diameter (Escherichia coli [8]): Not toxic

Compound: CN(O)C(=O)CCCCCn1c(=O)n(CCCCCC(=O)N(C)O)c(=O)n(CCCCCC(=O)N(C)O)c1=O
- Inhibitory diameter (Escherichia coli [1]): Not toxic
- Inhibitory diameter (Escherichia coli [2]): Not toxic
- Inhibitory diameter (Escherichia coli [3]): Not toxic
- Inhibitory diameter (Escherichia coli [5]): Not toxic

Compound: CC(=O)N(O)CCCCn1c(=O)n(CCCCN(O)C(C)=O)c(=O)n(CCCCN(O)C(C)=O)c1=O
- Inhibitory diameter (Escherichia coli [5]): Not toxic

Compound: CC(=O)N(O)CCCCCn1c(=O)n(CCCCCN(O)C(C)=O)c(=O)n(CCCCCN(O)C(C)=O)c1=O
- Inhibitory diameter (Escherichia coli [1]): Not toxic
- Inhibitory diameter (Escherichia coli [5]): Not toxic

Compound: FERRICHROME
- Inhibitory diameter (Escherichia coli [6]): Not toxic
- Inhibitory diameter (Escherichia coli [9]): Not toxic
- Inhibitory diameter (Escherichia coli [7]): Not toxic
- Inhibitory diameter (Escherichia coli [8]): Not toxic

Compound: O=C(N[C@H]1COC(=O)[C@@H](NC(=O)c2cccc(O)c2O)COC(=O)[C@@H](NC(=O)c2cccc(O)c2O)COC1=O)c1cccc(O)c1O
- Inhibitory diameter (Escherichia coli [10]): Not toxic

Compound: CC(=O)N(O)CCCn1c(=O)n(CCCN(O)C(C)=O)c(=O)n(CCCN(O)C(C)=O)c1=O
- Inhibitory diameter (Escherichia coli [1]): Not toxic
- Inhibitory diameter (Escherichia coli [5]): Not toxic
